Assay results as given in ChEMBL document CHEMBL1201862, “PubChem BioAssay data set” (2004).
Values joined by “and” are separate entries in the source; they are usually repeats but may differ in a detail not shown here. Equal entries are not always repeated.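 Five compound concentrations were applied to cells in 96-well plates for 48 hours; endpoints were derived by simple linear interpolation of the resulting dose-response curve. The concentration for 50% growth inhibition is given as GI50.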 Active and inactive are the calls of the source. Cut-off read from the data, not from the text of the source: active = GI50 up to about 1.1 µM and inactive = higher.

Key:
Test in all cases: NCI anticancer screen, dose series, 48 h
NCI-H23 = tested on: NCI-H23
SK-MEL-5 = tested on: SK-MEL-5
CCRF-CEM = tested on: CCRF-CEM
HCT-116 = tested on: HCT-116
ACHN = tested on: ACHN
SK-MEL-28 = tested on: SK-MEL-28
IGROV-1 = tested on: IGROV-1
NCI-H522 = tested on: NCI-H522
K562 = tested on: K562
CAKI-1 = tested on: CAKI-1
HCT-15 = tested on: HCT-15
SNB-75 = tested on: SNB-75
HT-29 = tested on: HT-29
HCC 2998 = tested on: HCC 2998
U-251 = tested on: U-251
SW-620 = tested on: SW-620
MDA-N = tested on: MDA-N
PC-3 = tested on: PC-3
BT-549 = tested on: BT-549
MCF7 = tested on: MCF7

| SMILES | GI50 (NCI-H23) | GI50 (SK-MEL-5) | GI50 (CCRF-CEM) | GI50 (HCT-116) | GI50 (ACHN) | GI50 (SK-MEL-28) | GI50 (IGROV-1) | GI50 (NCI-H522) | GI50 (K562) | GI50 (CAKI-1) | GI50 (HCT-15) [µM] | GI50 (SNB-75) | GI50 (HT-29) | GI50 (HCC 2998) | GI50 (U-251) | GI50 (SW-620) | GI50 (MDA-N) | GI50 (PC-3) | GI50 (BT-549) | GI50 (MCF7) |
| --- | --- | --- | --- | --- | --- | --- | --- | --- | --- | --- | --- | --- | --- | --- | --- | --- | --- | --- | --- | --- |
| O=C(/C=C/c1ccccc1Cl)c1ccc(Cl)c(Cl)c1 | 20 µM (inactive) | 18.9 µM (inactive) | 26.4 µM (inactive) | 11.5 µM (inactive) | 15.3 µM (inactive) | 20.2 µM (inactive) | 12.4 µM (inactive) | 17.3 µM (inactive) | 26.8 µM (inactive) | 15.4 µM (inactive) | 15.7 | 13 µM (inactive) | 19.8 µM (inactive) | 15.5 µM (inactive) | 17.3 µM (inactive) | 15.1 µM (inactive) | – | – | – | – |
| CC1=C2C(=O)c3ccccc3C(=O)[C@H]2C[C@@H](N2CCCCCC2=O)O1 | 14.9 µM (inactive) | 16.1 µM (inactive) | 3.44 µM (inactive) | – | 23.4 µM (inactive) | 18.7 µM (inactive) | 16.4 µM (inactive) | 19.9 µM (inactive) | 19.8 µM (inactive) | 16.9 µM (inactive) | 20.7 | 23.4 µM (inactive) | 27 µM (inactive) | 16.7 µM (inactive) | 23.8 µM (inactive) | 17.3 µM (inactive) | 16 µM (inactive) | 17.9 µM (inactive) | – | – |
| CCN(CC)CCNC(=O)c1nn(-c2ccc(Cl)cc2)c2c1CCc1cc(OC)ccc1-2 | 12.8 µM (inactive) | 1.74 µM (inactive) | 5.3 µM (inactive) | 3.56 µM (inactive) | 11.4 µM (inactive) | 2.03 µM (inactive) | 12.8 µM (inactive) | 4.52 µM (inactive) | 2.77 µM (inactive) | 8.41 µM (inactive) | 2.92 | 5.21 µM (inactive) | 2.64 µM (inactive) | 2.34 µM (inactive) | 5.43 µM (inactive) | 3.26 µM (inactive) | 3.51 µM (inactive) | 12.6 µM (inactive) | 17.4 µM (inactive) | – |
| CC1(C)CC(=O)C(C(=O)Nc2cccs2)=C(O)C1 | 30 µM (inactive) | 40.6 µM (inactive) | 23 µM (inactive) | 29.7 µM (inactive) | 32.7 µM (inactive) | > 100 µM (inactive) | 32.9 µM (inactive) | 37.2 µM (inactive) | 28.1 µM (inactive) | 14.6 µM (inactive) | 33.9 | 25.2 µM (inactive) | 49.1 µM (inactive) | 48.5 µM (inactive) | 31.8 µM (inactive) | 38.8 µM (inactive) | – | – | – | – |
| CN(C)C(=S)/N=c1\ssc(=S)n1C1CCCCC1 | 44 µM (inactive) | 12.4 µM (inactive) | 0.23 µM (active) | 16.5 µM (inactive) | 35.9 µM (inactive) | 36.1 µM (inactive) | 98.9 µM (inactive) | 13.1 µM (inactive) | 16.9 µM (inactive) | 33 µM (inactive) | 33.1 | 42.7 µM (inactive) | 35.7 µM (inactive) | 37.1 µM (inactive) | 17 µM (inactive) | 13.7 µM (inactive) | – | – | – | – |
| CC(=O)O/N=C1\C=Cc2c(no[n+]2[O-])C1=O | 20 µM (inactive) | 17.5 µM (inactive) | 3.65 µM (inactive) | 14.3 µM (inactive) | 17.1 µM (inactive) | 21.6 µM (inactive) | 16.4 µM (inactive) | 17 µM (inactive) | 35 µM (inactive) | 20.5 µM (inactive) | 19.8 | 19.8 µM (inactive) | 17.5 µM (inactive) | 22.1 µM (inactive) | – | 3.37 µM (inactive) | 17.6 µM (inactive) | 17 µM (inactive) | – | 22.5 µM (inactive) |
| Nn1c(-c2cccc(Cl)c2)nc2ccccc2c1=O | > 100 µM (inactive) | > 100 µM (inactive) | 51.5 µM (inactive) | > 100 µM (inactive) | > 100 µM (inactive) | > 100 µM (inactive) | > 100 µM (inactive) | > 100 µM (inactive) | > 100 µM (inactive) | > 100 µM (inactive) | > 100 | > 100 µM (inactive) | > 100 µM (inactive) | > 100 µM (inactive) | > 100 µM (inactive) | > 100 µM (inactive) | – | – | – | – |
| C/C(=N\N=C(\N)OB(F)F)c1ccccn1 | > 100 µM (inactive) | > 100 µM (inactive) | 43.4 µM (inactive) | 58.5 µM (inactive) | 81.1 µM (inactive) | > 100 µM (inactive) | 64.3 µM (inactive) | > 100 µM (inactive) | 46.7 µM (inactive) | > 100 µM (inactive) | 93.8 | 7.23 µM (inactive) | 47.3 µM (inactive) | > 100 µM (inactive) | 35.7 µM (inactive) | > 100 µM (inactive) | 71.9 µM (inactive) | – | > 100 µM (inactive) | 79.4 µM (inactive) |
| CC1=NN(c2nc(N)nc(-c3ccccc3S(N)(=O)=O)n2)C(C)(C)C1 | 20.1 µM (inactive) | 18.1 µM (inactive) | 9.42 µM (inactive) | 10.2 µM (inactive) | 4.44 µM (inactive) | 27.9 µM (inactive) | 22.6 µM (inactive) | 24.3 µM (inactive) | 35.2 µM (inactive) | 3.37 µM (inactive) | 2.76 | – | 12.1 µM (inactive) | 13.8 µM (inactive) | 8.51 µM (inactive) | 25.8 µM (inactive) | 26.6 µM (inactive) | 16.7 µM (inactive) | – | 22.7 µM (inactive) |
| S=C(N/N=C\C=N/NC(=S)N1CCCCC1)N1CCCCC1 | 1.16 µM (inactive) | 0.37 µM (active) | – | 0.124 µM (active) | 0.267 µM (active) | 0.682 µM (active) | 0.664 µM (active) | 0.608 µM (active) | 0.547 µM (active) | 0.619 µM (active) | 0.0802 | 0.731 µM (active) | 0.163 µM (active) | – | 0.207 µM (active) | 0.0977 µM (active) | > 26.1 µM (inactive) | 0.387 µM (active) | – | 0.466 µM (active) |
| COc1ccc2c(c1)CCC1C3(CCCC21C)OCCO3 (configuration not stated) | 15.6 µM (inactive) | 15.6 µM (inactive) | 16.9 µM (inactive) | 16.8 µM (inactive) | 23.3 µM (inactive) | 20.2 µM (inactive) | 28.8 µM (inactive) | 15.7 µM (inactive) | 15.4 µM (inactive) | 34.6 µM (inactive) | 17.1 | 19.8 µM (inactive) | 17.5 µM (inactive) | 22.8 µM (inactive) | 15.9 µM (inactive) | 33.9 µM (inactive) | – | – | – | – |
| C[Si](C)(C)c1ccc(-c2sc(-c3ccc([Si](C)(C)C)s3)c3c2C[Si]2(C3)Cc3c(-c4ccc([Si](C)(C)C)s4)sc(-c4ccc([Si](C)(C)C)s4)c3C2)s1 | > 100 µM (inactive) | > 100 µM (inactive) | > 100 µM (inactive) | > 100 µM (inactive) | > 100 µM (inactive) | > 100 µM (inactive) | > 100 µM (inactive) | > 100 µM (inactive) | > 100 µM (inactive) | > 100 µM (inactive) | > 100 | 24.9 µM (inactive) | > 100 µM (inactive) | > 100 µM (inactive) | > 100 µM (inactive) | > 100 µM (inactive) | – | – | – | – |
| O=C(O)c1cccc(/C=C/c2ccccc2)c1 | > 100 µM (inactive) | > 100 µM (inactive) | > 100 µM (inactive) | > 100 µM (inactive) | > 100 µM (inactive) | > 100 µM (inactive) | > 100 µM (inactive) | > 100 µM (inactive) | – | > 100 µM (inactive) | > 100 | > 100 µM (inactive) | > 100 µM (inactive) | – | > 100 µM (inactive) | > 100 µM (inactive) | – | > 100 µM (inactive) | > 100 µM (inactive) | > 100 µM (inactive) |
| CC(=O)C1C(=O)C(=O)N(c2cccc(C)c2C)C1=O (configuration not stated) | > 100 µM (inactive) | > 100 µM (inactive) | – | > 100 µM (inactive) | > 100 µM (inactive) | – | > 100 µM (inactive) | – | – | > 100 µM (inactive) | – | > 100 µM (inactive) | > 100 µM (inactive) | – | – | – | > 100 µM (inactive) | > 100 µM (inactive) | > 100 µM (inactive) | > 100 µM (inactive) |
| Nc1ncnc2c1ncn2C1CC(O)C(CO)O1 (configuration not stated) | > 100 µM (inactive) | > 100 µM (inactive) | > 100 µM (inactive) and 70.5 µM (inactive) | > 100 µM (inactive) | > 100 µM (inactive) | > 100 µM (inactive) | > 100 µM (inactive) | > 100 µM (inactive) | > 100 µM (inactive) | > 100 µM (inactive) | > 100 | > 100 µM (inactive) | > 100 µM (inactive) | > 100 µM (inactive) | > 100 µM (inactive) | > 100 µM (inactive) | > 100 µM (inactive) | > 100 µM (inactive) | – | > 100 µM (inactive) |
| COC(=O)c1c[nH]c(=O)[nH]c1=O [ISOOROTIC ACID METHYL ESTER] | > 100 µM (inactive) | > 100 µM (inactive) | > 100 µM (inactive) | > 100 µM (inactive) | > 100 µM (inactive) | > 100 µM (inactive) | > 100 µM (inactive) | > 100 µM (inactive) | > 100 µM (inactive) | > 100 µM (inactive) | > 100 | > 100 µM (inactive) | – | > 100 µM (inactive) | – | > 100 µM (inactive) | > 100 µM (inactive) | > 100 µM (inactive) | – | > 100 µM (inactive) |
| COc1c(O)c(OC)c(C(=O)/C=C/c2ccccc2)c(O)c1OC [PEDICIN] | – | 20.4 µM (inactive) | 94.6 µM (inactive) | 17.7 µM (inactive) | 23.6 µM (inactive) | 33.3 µM (inactive) | 21.3 µM (inactive) | 16 µM (inactive) | 40.6 µM (inactive) | 56.1 µM (inactive) | 28.8 | 30.3 µM (inactive) | 32.6 µM (inactive) | 68.1 µM (inactive) | 31.9 µM (inactive) | 27.9 µM (inactive) | 20.9 µM (inactive) | 41.6 µM (inactive) | – | 26.9 µM (inactive) |
